Results as given in patent publication US20020137929A1, “1 - (3-heterocyclylphenyl) isothiourea, -isourea, -guanidine and -amidine herbicidal agents” (Intellectual Property Department, BASF Aktiengesellschaft, priority 1998, published 2002).

Columns and labels:
[1] = tested on: ECHCG (Barnyardgrass); assay: Preemergence herbicidal evaluation; assay type: in vivo, Echinochloa crus-galli; conditions: rated 4-5 weeks after treatment
How it was run: (§1)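 Scores use a 0–9 visual scale covering stand, vigor, malformation, size and chlorosis relative to controls, rated four to five weeks after treatment. Before emergence, soil-planted seeds were sprayed with compound in aqueous acetone at roughly 0.0156–0.500 kg/ha and held in the greenhouse.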

[2] = tested on: CYPIR (Rice Flatsedge); assay: Postemergence weed control under flooded paddy conditions; assay type: in vivo, Cyperus iria; conditions: postemergence weeds, 3-4 weeks after treatment
How it was run: (§2)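 Flood-water application, about 0.0313–0.500 kg/ha a.i. in aqueous/acetone 50/50 v/v; water depth 1.5–3 cm throughout. Weeds 3–5 cm, rice 1.5–2.5 leaf. Greenhouse; 0–9 visual rating vs control at 3–4 wk.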

[3] = tested on: ZEAMX (Corn, Field); assay: Preemergence herbicidal evaluation; assay type: in vivo, Zea mays; conditions: rated 4-5 weeks after treatment
How it was run: as §1

[4] = tested on: TRZAWR (Wheat, Winter, cv Riband); assay: Preemergence herbicidal evaluation; assay type: in vivo, Triticum aestivum; conditions: rated 4-5 weeks after treatment
How it was run: as §1

[5] = tested on: CYPIR (Rice Flatsedge); assay: Preemergence weed control under flooded paddy conditions; assay type: in vivo, Cyperus iria; conditions: rated 3-4 weeks after treatment
How it was run: (§3)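 Herbicidal effect is scored visually on a 0-9 scale against an untreated control, three to four weeks after compounds are pipetted into the flood water (1.5 to 3 cm deep) over seeds planted in silt loam at 0.5 cm depth. Rates: about 0.0313 to 0.500 kg/ha.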

[6] = tested on: CYPSE (Flatsedge); assay: as above; assay type: in vivo, Cyperus serotinus; conditions: rated 3-4 weeks after treatment
How it was run: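 Visual injury scored 0-9 against control three to four weeks post-treatment, greenhouse-grown. Application: acetone/water (50/50) solutions dosed directly into flood water (1.5-3 cm over silt loam, planted top 0.5 cm), roughly 0.0313 to 0.500 kg/ha active ingredient.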

[7] = tested on: ECHORC (Watergrass (Calif.)); assay: Postemergence weed control under flooded paddy conditions; assay type: in vivo, Echinochloa oryzoides; conditions: postemergence weeds, 3-4 weeks after treatment
How it was run: as §2

[8] = tested on: ORYSAT (Rice, Tebonnet); assay: Postemergence herbicidal evaluation; assay type: in vivo, Oryza sativa, (L.) Tebonnet
How it was run: (§4)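 Each compound, dispersed in an acetone/water mix (50/50) carrying 0.5% TWEEN 20, is nozzle-sprayed at 40 psi on approximately two-week-old seedlings at about 0.0156–0.500 kg/ha. Plants are assessed 4–5 weeks afterward on a 0–9 scale relative to control; duplicate tests are averaged.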

[9] = tested on: ECHORC (Watergrass (Calif.)); assay: Preemergence weed control under flooded paddy conditions; assay type: in vivo, Echinochloa oryzoides; conditions: rated 3-4 weeks after treatment
How it was run: as §3

[10] = tested on: SETVI (Foxtail, Green); assay: Postemergence herbicidal evaluation; assay type: in vivo, Setaria viridis
How it was run: as §4

[11] = tested on: ZEAMX (Corn, Field); assay: Postemergence herbicidal evaluation; assay type: in vivo, Zea mays
How it was run: as §4

[12] = tested on: SETVI (Foxtail, Green); assay: Preemergence herbicidal evaluation; assay type: in vivo, Setaria viridis; conditions: rated 4-5 weeks after treatment
How it was run: as §1

[13] = tested on: SAGPY (Arrowhead (Pygmaea)); assay: Postemergence weed control under flooded paddy conditions; assay type: in vivo, Sagittaria pygmaea; conditions: postemergence weeds, 3-4 weeks after treatment
How it was run: as §2

[14] = tested on: CYPSE (Flatsedge); assay: as above; assay type: in vivo, Cyperus serotinus; conditions: postemergence weeds, 3-4 weeks after treatment
How it was run: as §2

CCOC(=O)CN1C(=O)C[S+]([O-])/C1=N/c1cc(-n2c(=O)cc(C(F)(F)F)n(C)c2=O)c(F)cc1Cl (stereo not shown) [Compound 45, 2-{{2-Chloro-5-[3,6-dihydro-3-methyl-2,6-dioxo-4-(trifluoromethyl)-1(2H)-pyrimidinyl]-4-fluoro-phenyl}imino}-4-oxo-3-thiazolidineacetic acid, ethyl ester, 1-oxide]
5.5: Postemergence herbicidal rating ZEAMX ([11]; Rate 0.0625 kg/ha)
4.5: Postemergence herbicidal rating ZEAMX ([11]; Rate 0.0156 kg/ha)
5.0: Preemergence herbicidal rating TRZAWR ([4]; rate 0.2500 kg/ha) | Postemergence herbicidal rating ZEAMX ([11]; Rate 0.0313 kg/ha)
2.0: Preemergence herbicidal rating ZEAMX ([3]; rate 0.1250 kg/ha) | Preemergence herbicidal rating TRZAWR ([4]; rate 0.1250 kg/ha) | Postemergence herbicidal rating ORYSAT ([8]; Rate 0.0625 kg/ha) | Postemergence herbicidal rating SETVI ([10]; Rate 0.0625 kg/ha)
1.5: Postemergence herbicidal rating ORYSAT ([8]; Rate 0.0156 kg/ha) | Postemergence herbicidal rating ORYSAT ([8]; Rate 0.0313 kg/ha)
0.0: Preemergence herbicidal rating ECHCG ([1]; rate 0.0156 kg/ha) | Preemergence herbicidal rating ECHCG ([1]; rate 0.0313 kg/ha) | Preemergence herbicidal rating ECHCG ([1]; rate 0.0625 kg/ha) | Preemergence herbicidal rating ECHCG ([1]; rate 0.1250 kg/ha) | Preemergence herbicidal rating ECHCG ([1]; rate 0.2500 kg/ha) | Herbicidal rating CYPIR ([2]; rate 0.0313 kg/ha) | Preemergence herbicidal rating ZEAMX ([3]; rate 0.0156 kg/ha) | Preemergence herbicidal rating ZEAMX ([3]; rate 0.0313 kg/ha) | Preemergence herbicidal rating ZEAMX ([3]; rate 0.0625 kg/ha) | Preemergence herbicidal rating TRZAWR ([4]; rate 0.0156 kg/ha) | Preemergence herbicidal rating TRZAWR ([4]; rate 0.0313 kg/ha) | Preemergence herbicidal rating TRZAWR ([4]; rate 0.0625 kg/ha) | Herbicidal rating CYPIR ([5]; 0.0313 kg/ha) | Herbicidal rating CYPSE ([6]; 0.0313 kg/ha) | Herbicidal rating CYPSE ([6]; 0.0625 kg/ha) | Herbicidal rating CYPSE ([6]; 0.2500 kg/ha) | Postemergence herbicidal rating SETVI ([10]; Rate 0.0156 kg/ha) | Postemergence herbicidal rating SETVI ([10]; Rate 0.0313 kg/ha) | Preemergence herbicidal rating SETVI ([12]; rate 0.0156 kg/ha) | Preemergence herbicidal rating SETVI ([12]; rate 0.0313 kg/ha) | Preemergence herbicidal rating SETVI ([12]; rate 0.0625 kg/ha) | Preemergence herbicidal rating SETVI ([12]; rate 0.1250 kg/ha) | Preemergence herbicidal rating SETVI ([12]; rate 0.2500 kg/ha) | Herbicidal rating SAGPY ([13]; rate 0.0313 kg/ha) | Herbicidal rating SAGPY ([13]; rate 0.0625 kg/ha) | Herbicidal rating SAGPY ([13]; rate 0.1250 kg/ha) | Herbicidal rating CYPSE ([14]; rate 0.0313 kg/ha) | Herbicidal rating CYPSE ([14]; rate 0.0625 kg/ha) | Herbicidal rating CYPSE ([14]; rate 0.2500 kg/ha)
3.0: Herbicidal rating CYPIR ([2]; rate 0.0625 kg/ha) | Herbicidal rating CYPIR ([5]; 0.0625 kg/ha) | Herbicidal rating ECHORC ([7]; rate 0.0313 kg/ha) | Herbicidal rating ECHORC ([9]; 0.0313 kg/ha)
4.0: Preemergence herbicidal rating ZEAMX ([3]; rate 0.2500 kg/ha) | Herbicidal rating ECHORC ([7]; rate 0.0625 kg/ha) | Herbicidal rating ECHORC ([9]; 0.0625 kg/ha) | Herbicidal rating SAGPY ([13]; rate 0.2500 kg/ha)
7.0: Herbicidal rating CYPIR ([2]; rate 0.1250 kg/ha) | Herbicidal rating CYPIR ([2]; rate 0.2500 kg/ha) | Herbicidal rating CYPIR ([5]; 0.1250 kg/ha) | Herbicidal rating CYPIR ([5]; 0.2500 kg/ha) | Herbicidal rating ECHORC ([7]; rate 0.1250 kg/ha) | Herbicidal rating ECHORC ([7]; rate 0.2500 kg/ha) | Herbicidal rating ECHORC ([9]; 0.1250 kg/ha) | Herbicidal rating ECHORC ([9]; 0.2500 kg/ha)

CCOC(=O)CN1C(=O)CSC1=Nc1cc(N2C(=O)C3=C(CCCC3)C2=O)c(F)cc1Cl [Compound 47, Ethyl 2-{[2-chloro-5-(1-cyclohexene-1,2-dicarboximido)-4-fluorophenyl]imino}-4-oxo-3-thiazolidineacetate]
3.0: Postemergence herbicidal rating ORYSAT ([8]; Rate 0.0625 kg/ha)
7.0: Herbicidal rating ECHORC ([7]; rate 0.2500 kg/ha) | Herbicidal rating ECHORC ([9]; 0.2500 kg/ha) | Postemergence herbicidal rating ZEAMX ([11]; Rate 0.0313 kg/ha) | Herbicidal rating SAGPY ([13]; rate 0.2500 kg/ha)
1.5: Postemergence herbicidal rating ORYSAT ([8]; Rate 0.0313 kg/ha)
2.0: Preemergence herbicidal rating ZEAMX ([3]; rate 0.2500 kg/ha) | Herbicidal rating ECHORC ([7]; rate 0.0625 kg/ha) | Herbicidal rating ECHORC ([9]; 0.0625 kg/ha)
7.5: Postemergence herbicidal rating ZEAMX ([11]; Rate 0.0625 kg/ha)
0.5: Postemergence herbicidal rating ORYSAT ([8]; Rate 0.0156 kg/ha)
6.0: Herbicidal rating CYPIR ([2]; rate 0.2500 kg/ha) | Herbicidal rating CYPIR ([5]; 0.2500 kg/ha)
4.0: Herbicidal rating CYPIR ([2]; rate 0.1250 kg/ha) | Herbicidal rating CYPIR ([5]; 0.1250 kg/ha) | Herbicidal rating ECHORC ([7]; rate 0.1250 kg/ha) | Herbicidal rating ECHORC ([9]; 0.1250 kg/ha) | Preemergence herbicidal rating SETVI ([12]; rate 0.2500 kg/ha) | Herbicidal rating SAGPY ([13]; rate 0.1250 kg/ha)
0.0: Preemergence herbicidal rating ECHCG ([1]; rate 0.0156 kg/ha) | Preemergence herbicidal rating ECHCG ([1]; rate 0.0313 kg/ha) | Preemergence herbicidal rating ECHCG ([1]; rate 0.0625 kg/ha) | Preemergence herbicidal rating ECHCG ([1]; rate 0.1250 kg/ha) | Preemergence herbicidal rating ECHCG ([1]; rate 0.2500 kg/ha) | Herbicidal rating CYPIR ([2]; rate 0.0313 kg/ha) | Herbicidal rating CYPIR ([2]; rate 0.0625 kg/ha) | Preemergence herbicidal rating ZEAMX ([3]; rate 0.0156 kg/ha) | Preemergence herbicidal rating ZEAMX ([3]; rate 0.0313 kg/ha) | Preemergence herbicidal rating ZEAMX ([3]; rate 0.0625 kg/ha) | Preemergence herbicidal rating ZEAMX ([3]; rate 0.1250 kg/ha) | Preemergence herbicidal rating TRZAWR ([4]; rate 0.0156 kg/ha) | Preemergence herbicidal rating TRZAWR ([4]; rate 0.0313 kg/ha) | Preemergence herbicidal rating TRZAWR ([4]; rate 0.0625 kg/ha) | Preemergence herbicidal rating TRZAWR ([4]; rate 0.1250 kg/ha) | Preemergence herbicidal rating TRZAWR ([4]; rate 0.2500 kg/ha) | Herbicidal rating CYPIR ([5]; 0.0313 kg/ha) | Herbicidal rating CYPIR ([5]; 0.0625 kg/ha) | Herbicidal rating CYPSE ([6]; 0.0313 kg/ha) | Herbicidal rating CYPSE ([6]; 0.0625 kg/ha) | Herbicidal rating CYPSE ([6]; 0.1250 kg/ha) | Herbicidal rating CYPSE ([6]; 0.2500 kg/ha) | Herbicidal rating ECHORC ([7]; rate 0.0313 kg/ha) | Herbicidal rating ECHORC ([9]; 0.0313 kg/ha) | Postemergence herbicidal rating SETVI ([10]; Rate 0.0156 kg/ha) | Postemergence herbicidal rating SETVI ([10]; Rate 0.0313 kg/ha) | Postemergence herbicidal rating SETVI ([10]; Rate 0.0625 kg/ha) | Preemergence herbicidal rating SETVI ([12]; rate 0.0156 kg/ha) | Preemergence herbicidal rating SETVI ([12]; rate 0.0313 kg/ha) | Preemergence herbicidal rating SETVI ([12]; rate 0.0625 kg/ha) | Preemergence herbicidal rating SETVI ([12]; rate 0.1250 kg/ha) | Herbicidal rating SAGPY ([13]; rate 0.0313 kg/ha) | Herbicidal rating SAGPY ([13]; rate 0.0625 kg/ha) | Herbicidal rating CYPSE ([14]; rate 0.0313 kg/ha) | Herbicidal rating CYPSE ([14]; rate 0.0625 kg/ha) | Herbicidal rating CYPSE ([14]; rate 0.1250 kg/ha) | Herbicidal rating CYPSE ([14]; rate 0.2500 kg/ha)
5.0: Postemergence herbicidal rating ZEAMX ([11]; Rate 0.0156 kg/ha)
